In this test the test system is RSV Long strain. Briefly: Viral cytopathic effect (CPE) assay, RSV Long strain. The class given is cell-based, Respiratory Syncytial Virus. The settings on record: human respiratory syncytial virus, 144 h, cell viability after 6 days (Cell Counting kit-8). In outline: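 Cells in DMEM with 10% FBS infected next day with RSV Long (A subtype) at a dose giving ~80–90% CPE after 6 days, alongside half-log compound dilutions. Viability at day 6 by CCK-8, absorbance 450 nm referenced to 630 nm; EC50 is concentration giving 50% of maximal protection.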
The compound `O=C1N(Cc2cc3cc(Cl)ccc3n2CCCN2CC[C@@H](O)C2)c2cnccc2C12CC2` [Example 21, 1′-[(5-Chloro-1-{3-[(3R)-3-hydroxypyrrolidin-1-yl]propyl}-1H-indol-2-yl)methyl]spiro[cyclopropane-1,3′-pyrrolo[2,3-c]pyridin]-2′(1′H)-one] came in with a half-maximal effective concentration (EC50) of 544 nM. This lies in the sub-micromolar range.

`CS(=N)(=O)CCCn1c(CN2C(=O)C3(CC3)c3ccncc32)cc2cc(Cl)ccc21` (stereo not drawn) [Example 14-1, 1′-({5-Chloro-1-[3-(S-methylsulfonimidoyl)propyl]-1H-indol-2-yl}methyl)spiro[cyclopropane-1,3′-pyrrolo[2,3-c]pyridin]-2′(1′H)-one] showed an EC50 of 6 nM.

On to `CS(=O)(=O)CCn1c(CN2C(=O)C3(CC3)c3c(Br)cccc32)nc2cc(Cl)ccc21` [Example 34-4, 4′-Bromo-1′-({5-chloro-1-[2-(methylsulfonyl)ethyl]-1H-benzimidazol-2-yl}methyl)spiro[cyclopropane-1,3′-indol]-2′(1′H)-one], for which the response was half-maximal at 205 nM (EC50).

In turn, `CS(=O)(=O)CCCn1c(CN2C(=O)C3(CC3)c3cccnc32)cc2cc(Cl)ccc21` [Example 22-2, 1′-({5-Chloro-1-[3-(methylsulfonyl)propyl]-1H-indol-2-yl}methyl)spiro[cyclopropane-1,3′-pyrrolo[2,3-b]pyridin]-2′(1′H)-one] came in with a half-maximal effective concentration (EC50) of 88 nM.

`O=C1N(Cc2cc3cc(Cl)ccc3n2CCCNCCO)c2cnccc2C12CC2` [Example 29, 1′-[(5-Chloro-1-{3-[(2-hydroxyethyl)amino]propyl}-1H-indol-2-yl)methyl]spiro[cyclopropane-1,3′-pyrrolo[2,3-c]pyridin]-2′(1′H)-one] had a 50% effective concentration (EC50) of 244 nM.

The compound `[2H]C([2H])(c1cc2cc(Cl)ccc2n1CCCS(C)(=O)=O)N1C(=O)C2(CC2)c2ccncc21` [Example 10, 1′[{-5-Chloro-1-[3-(methylsulfonyl)propyl]-1H-indol-2-yl}(^2H2)methyl]spiro[cyclopropane-1,3′-pyrrolo[2,3-c]pyridin]-2′(1′H)-one] displayed an EC50 of 19 nM. Compared with the last compound, the EC50 is about 13-fold lower.

In the case of `CS(=O)(=O)CCn1c(CN2C(=O)C3(CC3)c3cc(F)ccc32)cc2cc(Cl)cnc21` [Example 2-7, 1′-({5-Chloro-1-[2-(methylsulfonyl)ethyl]-1H-pyrrolo[2,3-b]pyridin-2-yl}methyl)-5′-fluorospiro[cyclopropane-1,3′-indol]-2′(1′H)-one], the midpoint of the response, the EC50, lay at 750 nM.

`CCS(=O)(=O)CCCn1c(CN2C(=O)C3(CC3)c3ccncc32)cc2cc(Cl)ccc21` [Example 22-1, 1′-({5-Chloro-1-[3-(ethylsulfonyl)propyl]-1H-indol-2-yl}methyl)spiro[cyclopropane-1,3′-pyrrolo[2,3-c]pyridin]-2′(1′H)-one] came in with a concentration for a half-maximal effect (EC50) of 3 nM.

Compound `CS(=O)(=O)CCn1c(CN2C(=O)C3(CC3)c3c(F)cccc32)nc2cc(Cl)ccc21` [Example 34-2, 1′-({5-Chloro-1-[2-(methylsulfonyl)ethyl]-1H-benzimidazol-2-yl}methyl)-4′-fluorospiro[cyclopropane-1,3′-indol]-2′(1′H)-one] returned an EC50 of 20 nM.

In turn, `O=C1N(Cc2cc3cc(Cl)ccc3n2CCCS(=O)(=O)N2CCNCC2)c2cnccc2C12CC2` [Example 24-2, 1′-({5-Chloro-1-[3-(piperazin-1-ylsulfonyl)propyl]-1H-indol-2-yl}methyl)spiro[cyclopropane-1,3′-pyrrolo[2,3-c]pyridin]-2′(1′H)-one] yielded an EC50 of 15 nM.

The compound `CC(=O)N=S(C)(=O)CCn1c(CN2C(=O)C3(CC3)c3ccncc32)cc2cc(Cl)ccc21` (stereo not drawn) [Example 15, N-[(2-{5-Chloro-2-[(2′-oxospiro[cyclopropane-1,3′-pyrrolo[2,3-c]pyridin]-1′(2′H)-yl)methyl]-1H-indol-1-yl}ethyl)(methyl)oxido-λ^6-sulfanylidene]acetamide] had an EC50 of 25 nM.

As to `CS(=O)(=O)CCCn1c(CN2C(=O)C3(CC3)c3ccncc32)cc2cc(Cl)ccc21` [Example 22-3, 1′-({5-Chloro-1-[3-(methylsulfonyl)propyl]-1H-indol-2-yl}methyl)spiro[cyclopropane-1,3′-pyrrolo[2,3-c]pyridin]-2′(1′H)-one], the midpoint of the response, the EC50, lay at 3 nM.

The values are drawn from US10189838B2, “Aza-oxo-indoles for the treatment and prophylaxis of respiratory syncytial virus infection” (Hoffmann-La Roche Inc., priority 2013, dated 2019).
